Data on three molecules can be found in paper PMC9225965 (Bioorganic & Medicinal Chemistry Letters, 2022).

One test has as its target SARS-CoV-2 M^pro (Severe acute respiratory syndrome coronavirus 2, UniProt P0DTD1). The test is described as follows: biochemical. Conditions: for inhibition at 50 µM: read-out: M^pro inhibition.
The test system of the next test is SARS-CoV-2 main protease. The settings on record: read-out: reported IC50; similar FRET-based assays; cited from earlier work.

For orientation: inhibition means the percentage by which the read-out fell short of the control. Regarding `O=C(CSc1nc2cc(Cl)ccc2n1Cc1ccccc1)N1CCNC1=O` [Compound 8], on SARS-CoV-2 M^pro (IC50 experiment repeated with 0.02 % Triton-X in reaction buffer), the “activity in the presence of Triton-X (aggregation control)” value is listed as “not attenuated”. Further, at SARS-CoV-2 M^pro, the inhibition at 50 µM was over 50%. The IC50 is the concentration that gives 50% inhibition. For `CC(C)(C)NC(=O)N[C@H](C(=O)N1C[C@H]2[C@@H]([C@H]1C(=O)NC(CC1CCC1)C(=O)C(N)=O)C2(C)C)C(C)(C)C` (stereo partly shown) [boceprevir], the IC50 in the test with SARS-CoV-2 main protease was […]. On to `COCCn1c(C(=O)NCC(O)c2ccccc2)nc2ccccc2c1=O` (stereo not shown) [Compound 10], for which the inhibition at 50 µM on SARS-CoV-2 M^pro is over 50%.
